Test results: PubChem BioAssay AID2842 (Southern Research Institute, 2010)
In brackets after ≈: the same amount, converted by molar mass.

The compounds below were run on M. tuberculosis H37Rv growth inhibition (assay: Mycobacterium tuberculosis H37Rv growth inhibition, putative kinase inhibitor library, confirmatory dose response (AID 2842);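 further: bacteria incubated one week before Alamar blue readout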).

| Compound | IC90 [µg/mL] |
| --- | --- |
| CC(=O)N1CCc2c(sc(NC(=O)c3ccc(N(C)C)cc3)c2C(N)=O)C1 | 8.5 (≈ 22 µM) |
| CCC(=O)Nc1nnc(-c2ccc(Cl)s2)o1 | 8.62 (≈ 33.4 µM) |
| CCOC(=O)N1CCc2c(sc(NC(=O)c3ccccc3)c2C(N)=O)C1 | 1.84 (≈ 4.93 µM) |
| CSc1ccc2nc(Nc3nnc(-c4ccc5c(c4)OCCO5)o3)sc2c1 | 15.1 (≈ 38 µM) |
| O=C(Nc1nc2c(s1)CCCC2)c1ccc(Cc2ccccc2)cc1 | 7.01 (≈ 20.1 µM) |
| CCOc1cccc2nc(NC(=O)c3ccc(Oc4ccccc4)cc3)sc12 | 13.7 (≈ 35.1 µM) |
| CCc1cccc2sc(N(CCCn3ccnc3)C(=O)c3cccs3)nc12 | 0.34 (≈ 0.857 µM) |
| CS(=O)(=O)c1ccc(CC(=O)Nc2nnc(-c3ccc4c(c3)CCCC4)o2)cc1 | 13.9 (≈ 33.7 µM) |
| O=C1C(Cl)=C(Nc2ccccc2O)C(=O)N1c1ccccc1 | 3.29 (≈ 10.5 µM) |
| COc1cccc2sc(Nc3nnc(-c4ccc(F)cc4)o3)nc12 | 2.97 (≈ 8.68 µM) |
| Cc1ccc(C)c(-c2nnc(NC(=O)c3ccc(Cl)cc3)o2)c1 | 22.7 (≈ 69.2 µM) |
| Cc1ccc(-c2nnc(NC(=O)CCOc3ccccc3)o2)c(C)c1 | 1.8 (≈ 5.34 µM) |
| O=C(c1ccc(Nc2nc(-c3ccccc3)c3cc(Br)ccc3n2)cc1)N1CCCC1 | 21.1 (≈ 44.6 µM) |
| COc1ccc(OC)c(-c2csc(NC(=O)c3ccc([N+](=O)[O-])o3)n2)c1 | 27.1 (≈ 72.2 µM) |
| Cc1ccc(C)c(-c2nnc(NC(=O)C3=COCCO3)o2)c1 | < 0.2 |
| c1ccc(CSc2ncnc3nc[nH]c23)cc1 | 19.5 (≈ 80.3 µM) |
| COc1ccc(C)c2sc(NNC(=O)c3nc4ccccc4s3)nc12 | 38 (≈ 103 µM) |
| COc1ccc(Cl)cc1NC(=O)NC1CC(=O)N(c2ccc(C)c(C)c2)C1 (stereo not drawn) | 28.5 (≈ 73.5 µM) |
| O=c1c2ccccc2oc2cc(O)ccc12 | 50 (≈ 236 µM) |
| CSc1nc2ccc3nc(NC(=O)c4cc5ccccc5oc4=O)sc3c2s1 | 26.1 (≈ 61.3 µM) |

| Compound | IC90 [µg/mL] |
| --- | --- |
| Cc1nc2c(ccc3nc(NC(=O)c4ccc(C(C)(C)C)cc4)sc32)s1 | 3.24 (≈ 8.49 µM) |
| OCc1cn(-c2ccccc2)nc1-c1ccc(F)cc1 | 6.38 (≈ 23.8 µM) |
| Cc1ccc(NCCn2c(C)cn3c4c(=O)[nH]c(=O)n(C)c4nc23)cc1 | 15.1 (≈ 42.9 µM) |
| COc1ccc(OC)c2sc(N(CCCn3ccnc3)C(=O)c3ccco3)nc12 | 6.7 (≈ 16.2 µM) |
| Cc1ccc(C)c(-c2nnc(NC(=O)c3ccc(OC(C)C)cc3)o2)c1 | 33.4 (≈ 95 µM) |
| O=C(NCCSc1c[nH]c2ccccc12)c1cc2ccccc2oc1=O | 1.58 (≈ 4.34 µM) |
| O=C(COc1ccc(Cl)cc1)N1CCN(c2ncnc3c2nnn3Cc2ccccc2)CC1 | 6.75 (≈ 14.5 µM) |
| CCc1cccc2sc(N(CCCn3ccnc3)C(=O)c3cc(OC)cc(OC)c3)nc12 | 10.7 (≈ 23.7 µM) |
| Cc1ccc(/C(O)=C2\C(=O)C(=O)N(c3ccccn3)C2c2cccc(Br)c2)cc1 (stereo not drawn) | 21.4 (≈ 47.7 µM) |
| CN(C)c1ccc(Nc2nncc(=O)[nH]2)cc1 | 8.05 (≈ 34.8 µM) |
| Cc1nc2ccc(NC(=O)Nc3cccc(Cl)c3)cc2s1 | 22.3 (≈ 70.1 µM) |
| Cc1ccc(-c2nnc(NC(=O)c3ccccc3)o2)c(C)c1 | 8.78 (≈ 29.9 µM) |
| CC(C)OC(=O)c1ccc(NC(=O)C2COc3ccccc3O2)cc1 (stereo not drawn) | 7.2 (≈ 21.1 µM) |
| CCCC(=O)Nc1nnc(-c2cc(C)ccc2C)o1 | 2.09 (≈ 8.06 µM) |
| CCCCC(=O)Nc1nnc(-c2ccc(Cl)s2)o1 | 3.23 (≈ 11.3 µM) |
| O=C(Nc1nnc(-c2cccs2)o1)c1ccc2c(c1)CCCC2 | 37.6 (≈ 116 µM) |
| COc1cc2c3nnc(-c4ccc(C)c(C)c4)c-3cn(Cc3ccccc3)c2cc1OC | 7.35 (≈ 17.4 µM) |
| COc1ccccc1-c1nnc(NC(=O)c2ccco2)o1 | 13.4 (≈ 46.9 µM) |
| Fc1cccc2sc(Nc3nnc(-c4ccccc4Cl)o3)nc12 | 16.8 (≈ 48.3 µM) |
| COc1cccc(-c2nnc(NC(=O)c3ccc(Cl)cc3)o2)c1 | 33.8 (≈ 102 µM) |

| Compound | IC90 [µg/mL] |
| --- | --- |
| COc1ccc2sc(Nc3nc(-c4ccccn4)cs3)nc2c1 | 1.59 (≈ 4.67 µM) |
| COc1cc(OC)cc(C(=O)Nc2nnc(-c3ccc(Br)cc3)o2)c1 | 52.3 (≈ 129 µM) |
| COc1cccc(-c2nnc(NC(=O)c3ccccc3Br)o2)c1 | 2.17 (≈ 5.8 µM) |
| O=C(Nc1nnc(C2=COCCO2)o1)c1cccc(Cl)c1 | 3.49 (≈ 11.3 µM) |
| C(=N\n1cnnc1)/c1ccc(-n2nc(-c3ccccc3)cc2-c2ccccc2)cc1 | 15.1 (≈ 38.7 µM) |
| CCCCOc1cccc(C(=O)Nc2nnc(-c3ccc(C)cc3C)o2)c1 | 2.63 (≈ 7.2 µM) |
| O=C(Nc1nnc(-c2ccc(Br)cc2)o1)c1ccc(S(=O)(=O)N2CCCCCC2)cc1 | 16 (≈ 31.7 µM) |
| Cc1ccc(-c2nnc(NC(=O)c3cc([N+](=O)[O-])ccc3Cl)o2)c(C)c1 | 1.57 (≈ 4.21 µM) |
| O=C(Nc1nnc(-c2ccco2)o1)c1cccc(Oc2ccccc2)c1 | 3.31 (≈ 9.53 µM) |
| O=C(Nc1nnc(-c2ccc3c(c2)CCCC3)o1)c1sc2ccccc2c1Cl | 34.5 (≈ 84.2 µM) |
| O=C(Nc1nnc(-c2cccnc2)o1)c1cc(Cl)ccc1Cl | 27.9 (≈ 83.1 µM) |
| O=C(Nc1nnc(-c2ccco2)o1)c1ccccc1F | 6.69 (≈ 24.5 µM) |
| O=C(c1ccc(NC2=C(Cl)C(=O)N(Cc3ccccc3)C2=O)cc1)N1CCCCC1 | 6.24 (≈ 14.7 µM) |
| Cc1ccc(C2C=C(c3ccc(Cl)cc3)Nc3ncnn32)cc1 (stereo not drawn) | 6.94 (≈ 21.5 µM) |
| CCOC(=O)N1CCc2c(sc(NC(=O)CCSc3ccccc3)c2C(N)=O)C1 | 8.5 (≈ 19.6 µM) |
| O=C(Nc1nnc(C2=COCCO2)o1)c1ccc2c(c1)CCCC2 | 0.44 (≈ 1.34 µM) |
| Cc1ccccc1NCCCn1c(C)cn2c3c(=O)[nH]c(=O)n(C)c3nc12 | 15.4 (≈ 41.9 µM) |
| Cc1ccc(-c2nnc3c4cc5c(cc4n(Cc4ccccc4F)cc2-3)OCCO5)cc1C | 6.25 (≈ 14.2 µM) |
